Reference: patent US8598342B2, “Methods and compounds for antimicrobial intervention” (President and Fellows of Harvard College, priority 2008, dated 2013)

How the values were obtained:
S. aureus TarL = biological target: T1, S. aureus TarL (Staphylococcus aureus, UniProt Q2G1B8); experiment: In vitro enzyme inhibition assay, TarL (radiometric); type: biochemical; conditions: targocil 50 μg/mL; enzyme 200 nM
T1 construct: made in house
T1 sequence (Q2G1B8 1-562): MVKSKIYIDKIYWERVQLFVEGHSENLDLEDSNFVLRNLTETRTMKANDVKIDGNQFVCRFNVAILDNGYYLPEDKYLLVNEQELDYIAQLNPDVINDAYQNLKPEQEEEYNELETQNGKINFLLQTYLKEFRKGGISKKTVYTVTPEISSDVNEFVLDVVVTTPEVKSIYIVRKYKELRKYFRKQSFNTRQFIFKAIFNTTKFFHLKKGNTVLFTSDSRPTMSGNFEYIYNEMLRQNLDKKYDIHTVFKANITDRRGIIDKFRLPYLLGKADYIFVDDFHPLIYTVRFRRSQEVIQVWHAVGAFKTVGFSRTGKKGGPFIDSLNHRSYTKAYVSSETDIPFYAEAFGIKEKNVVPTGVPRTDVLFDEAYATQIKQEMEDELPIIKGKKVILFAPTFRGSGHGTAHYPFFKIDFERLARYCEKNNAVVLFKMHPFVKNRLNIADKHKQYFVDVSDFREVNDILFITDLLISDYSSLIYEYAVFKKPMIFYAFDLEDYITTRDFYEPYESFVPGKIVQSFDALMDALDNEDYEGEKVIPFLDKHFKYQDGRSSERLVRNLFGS
Description: (A) TarL reaction with heat-treated enzyme; (B) TarL reaction with active enzyme; (C) TarL reaction with 5 μM targocil; (D) TarL reaction with 50 μM targocil; (E) TarL reaction with 100 μM targocil.
(§1) S. aureus TarB, D, F, I, and L were cloned, overexpressed and purified as described previously (S. Brown, Y. H. Zhang, S. Walker, Chemistry & Biology 15, 12, Jan. 2008.) Radiometric in vitro assays were run to test the inhibitory effects of targocil on Tar B, D, F, and L, while TarI was assayed for targocil inhibition using an HPLC assay using conditions similar to those previously reported (ibid). See below for exact reaction conditions. […] In each case, a reaction with no targocil served as a negative control (active enzymatic reaction) and a reaction with heat-treated enzyme served as a positive control (no enzymatic reaction). Targocil was incubated with all reaction components except the substrates at room temperature. After 10 minutes, substrates were added and the reactions were allowed to proceed for 60 minutes. The reactions were quenched with DMF and the products were imaged/monitored as previously described (ibid).
TarL in vitro inhibition assay protocol and data. Each 3 μL reaction contained 1 μM [14C] (GroP)2-ManNAc-β-(1,4)-GlcNAc-pp-farnesyl, 50 μM CDP-ribitol, 20 mM Tris base pH 7.5, 100 mM NaCl, 10 mM MgCl2, 200 nM TarL and either 5, 50, or 100 μM targocil. […]

S. aureus TarJ = biological target: T2, S. aureus TarJ (Staphylococcus aureus, UniProt Q2G1B9); experiment: In vitro enzyme inhibition assay, TarJ; type: biochemical; conditions: targocil 50 μg/mL
T2 sequence (Q2G1B9 1-341): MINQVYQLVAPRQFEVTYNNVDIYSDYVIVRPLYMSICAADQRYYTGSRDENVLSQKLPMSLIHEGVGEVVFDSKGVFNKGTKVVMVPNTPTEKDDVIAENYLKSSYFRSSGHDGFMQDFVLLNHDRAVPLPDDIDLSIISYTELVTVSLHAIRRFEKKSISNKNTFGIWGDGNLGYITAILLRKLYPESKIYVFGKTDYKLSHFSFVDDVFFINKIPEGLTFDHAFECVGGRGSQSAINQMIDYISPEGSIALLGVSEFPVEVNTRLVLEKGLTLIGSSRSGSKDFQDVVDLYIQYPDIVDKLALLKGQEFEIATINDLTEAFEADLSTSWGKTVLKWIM

S. aureus TarF = biological target: T3, S. aureus TarF (Staphylococcus aureus, UniProt Q2G1C1); experiment: In vitro enzyme inhibition assay, TarF (radiometric); type: biochemical; conditions: targocil 50 μg/mL; enzyme 200 nM
T3 construct: made in house
T3 sequence (Q2G1C1 1-389): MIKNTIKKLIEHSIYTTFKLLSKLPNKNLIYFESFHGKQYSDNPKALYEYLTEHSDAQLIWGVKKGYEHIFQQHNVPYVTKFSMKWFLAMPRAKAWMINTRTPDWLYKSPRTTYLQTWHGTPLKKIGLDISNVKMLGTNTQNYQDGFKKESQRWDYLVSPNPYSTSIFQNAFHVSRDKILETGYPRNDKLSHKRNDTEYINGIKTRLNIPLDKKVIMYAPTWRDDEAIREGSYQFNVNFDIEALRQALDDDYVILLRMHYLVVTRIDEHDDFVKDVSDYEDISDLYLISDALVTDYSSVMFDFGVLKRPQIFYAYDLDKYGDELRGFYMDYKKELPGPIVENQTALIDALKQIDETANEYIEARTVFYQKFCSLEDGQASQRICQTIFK
Description: as §1
TarF in vitro inhibition assay protocol. Each 3 μL reaction contained 1 μM [14C]-GroP-ManNAc β-(1,4)-GlcNAc-pp-farnesyl, 3 μM [14C]-CDP-glycerol, 20 mM Tris base pH 7.5, 100 mM NaCl, 10 mM MgCl2, 200 nM TarF. The reactions were quenched and imaged as described above for TarB.

B. subtilis 168 = experiment: MIC panel of Gram-positive strains: B. subtilis 168; type: cell-based, Bacillus subtilis
Description: (A) Targocil MIC data for a panel of Gram-positive strains, including MRSA clinical isolates B5271 and 5340A. Growth was monitored in triplicate after 12 h at 28° C. using optical density. (B) Two dimensional drug interaction analysis between tunicamycin and targocil grown for 18 h at 30° C. […] At higher concentrations, tunicamycin is toxic because it inhibits cell wall biosynthesis. […] Varying concentrations of drug were added to […] of S. aureus RN4220 after 5 h and cell count was monitored over time at 30° C. […] Cells were grown at 28° C. for 12 h and monitored for growth using optical density (OD600). Data were normalized to the DMSO controls for each strain. (E) Two classes of mutants were examined: phage resistant (m1 3) and phage sensitive (m4-5).

CCN(CC)c1nc2c(S(=O)(=O)c3ccccc3)nnn2c2ccc(Cl)cc12 [7-chloro-N,N-diethyl-3-(phenylsulfonyl)-[1,2,3]triazolo[1,5-a]quinazolin-5-amine]
inhibition of TarL (S. aureus TarL): None of these enzymes was inhibited
inhibition of TarJ (S. aureus TarJ): None of these enzymes was inhibited
inhibition of TarF (S. aureus TarF): None of these enzymes was inhibited
susceptibility of B. subtilis 168 (B. subtilis 168): targocil resistance in B. subtilis 168
